Earlier results in patent publication US9040021B2, “Heterocyclic compounds as imaging probes of tau pathology” (GE Healthcare Limited, priority 2010, dated 2015).

Biological target: tau aggregates (Homo sapiens, UniProt P10636)
Conditions: in vitro; tau aggregates vs Aβ1-42 amyloid; fold selectivity

Chain of tau aggregates (P10636 whole entry): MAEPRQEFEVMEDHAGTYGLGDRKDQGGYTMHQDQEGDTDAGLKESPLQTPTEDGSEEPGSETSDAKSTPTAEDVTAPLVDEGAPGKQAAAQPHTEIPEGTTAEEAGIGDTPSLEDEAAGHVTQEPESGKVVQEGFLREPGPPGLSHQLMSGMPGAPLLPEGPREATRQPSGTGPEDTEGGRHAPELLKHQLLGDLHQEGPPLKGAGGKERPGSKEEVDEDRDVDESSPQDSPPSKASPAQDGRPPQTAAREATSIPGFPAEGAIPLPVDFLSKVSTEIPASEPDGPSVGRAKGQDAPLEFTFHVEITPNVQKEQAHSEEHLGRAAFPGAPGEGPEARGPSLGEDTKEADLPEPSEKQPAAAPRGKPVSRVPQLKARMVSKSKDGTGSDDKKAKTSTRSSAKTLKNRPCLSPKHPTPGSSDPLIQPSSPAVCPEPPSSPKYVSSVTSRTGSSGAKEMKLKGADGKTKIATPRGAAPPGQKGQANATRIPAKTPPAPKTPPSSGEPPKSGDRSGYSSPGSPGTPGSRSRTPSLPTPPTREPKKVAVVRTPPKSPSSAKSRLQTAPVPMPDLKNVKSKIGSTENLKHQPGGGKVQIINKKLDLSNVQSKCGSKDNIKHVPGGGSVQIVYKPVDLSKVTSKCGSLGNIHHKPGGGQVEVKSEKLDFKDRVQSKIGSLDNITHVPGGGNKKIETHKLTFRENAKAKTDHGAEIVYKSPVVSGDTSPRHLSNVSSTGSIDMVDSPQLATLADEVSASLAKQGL

SMILES | selectivity for tau aggregates over Aβ1-42 amyloid
CNc1ccc(-c2ccc3ccccc3n2)cc1 [BF-158, 2-(4-(methylamino)phenyl)quinoline] | threefold
Nc1ccc(-c2ccc3ccccc3n2)cc1 [BF-170, 2-(4-(amino)phenyl)quinoline] | threefold
